From BindingDB's records for doi:10.1021/cb8001039 (National Cancer Institute-Bethesda, 2008) come the findings set out here.

The structures appear in SMILES notation.

One may read the IC50 as the concentration that gives 50% inhibition. Read a high IC50 as weaker potency.

Assay in all cases: FRET-Based RNase H Assay
Holding throughout (settings): pH 8; 20 °C

Assay [1] concerns the target T1, Gag-Pol polyprotein [600-1029,C879S]/[600-1159,C879S] (Human immunodeficiency virus 1, UniProt P03366, C879S).
T1 construct: 600-1029; 600-1159
The method, then:
(§1) RNaseH assays were performed using an 18-nucleotide 3-fluorescein-labeled RNA annealed to a complementary 18-nucleotide 5-dabcyl conjugated DNA. The increase in fluorescence as a result of RNase H hydrolysis was monitored with a Spectramax Gemini EM fluorescence spectrometer. Data were analyzed using the instrument manufacturer SoftMax pro software. To determine IC50 values, the slope of the curve representing the time dependent increase in fluorescence was determined at 10 min, when initial rate conditions are met and substrate depletion is not significant. The slope values were plotted against the logarithm of the inhibitor concentrations, and IC50 values were determined using SigmaPlot software.

Assay [2] addresses T2, Gag-Pol polyprotein [613-1167,R896S,E946D,S1117V]/[618-1043,R896S,E946D] (Human immunodeficiency virus 2, UniProt P04584, E946D/R896S/S1117V).
T2 construct: 613-1167; 618-1043
The protocol: as §1

The target of assay [3] is T3, Ribonuclease H1 (Homo sapiens, UniProt O60930).
T3 sequence (O60930 whole entry): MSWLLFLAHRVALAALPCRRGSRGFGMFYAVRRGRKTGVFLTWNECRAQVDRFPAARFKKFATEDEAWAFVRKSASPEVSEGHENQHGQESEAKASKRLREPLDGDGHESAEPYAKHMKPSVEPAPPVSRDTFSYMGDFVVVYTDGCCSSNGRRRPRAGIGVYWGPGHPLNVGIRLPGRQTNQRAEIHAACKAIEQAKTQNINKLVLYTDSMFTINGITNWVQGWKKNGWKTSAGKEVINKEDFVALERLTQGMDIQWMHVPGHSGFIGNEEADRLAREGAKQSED
The protocol:
as §1

In assay [4] the target is T4, Ribonuclease HI (Escherichia coli (strain K12), UniProt P0A7Y4).
T4 sequence (P0A7Y4 whole entry): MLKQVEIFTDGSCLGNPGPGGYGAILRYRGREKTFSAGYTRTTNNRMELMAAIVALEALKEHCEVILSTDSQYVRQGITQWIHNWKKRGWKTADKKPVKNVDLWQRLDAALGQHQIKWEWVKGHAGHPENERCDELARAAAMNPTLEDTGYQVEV
The protocol: as §1

T2 sequence (P04584 613-1167, looked up, stated change not applied): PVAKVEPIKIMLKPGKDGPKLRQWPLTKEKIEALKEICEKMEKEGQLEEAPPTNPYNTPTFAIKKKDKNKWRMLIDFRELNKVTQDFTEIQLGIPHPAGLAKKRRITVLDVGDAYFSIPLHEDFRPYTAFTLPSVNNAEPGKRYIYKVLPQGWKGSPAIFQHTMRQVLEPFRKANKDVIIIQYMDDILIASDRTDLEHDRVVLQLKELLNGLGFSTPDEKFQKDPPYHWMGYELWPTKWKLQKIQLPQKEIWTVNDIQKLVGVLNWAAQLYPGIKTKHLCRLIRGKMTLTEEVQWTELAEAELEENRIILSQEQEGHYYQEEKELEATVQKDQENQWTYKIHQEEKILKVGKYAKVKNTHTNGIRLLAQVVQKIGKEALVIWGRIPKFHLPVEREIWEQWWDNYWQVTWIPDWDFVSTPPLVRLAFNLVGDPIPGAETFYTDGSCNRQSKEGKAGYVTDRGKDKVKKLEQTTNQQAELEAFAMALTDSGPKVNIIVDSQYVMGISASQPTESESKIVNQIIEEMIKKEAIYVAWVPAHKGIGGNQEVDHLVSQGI
T2 sequence (P04584 618-1043, looked up, stated change not applied): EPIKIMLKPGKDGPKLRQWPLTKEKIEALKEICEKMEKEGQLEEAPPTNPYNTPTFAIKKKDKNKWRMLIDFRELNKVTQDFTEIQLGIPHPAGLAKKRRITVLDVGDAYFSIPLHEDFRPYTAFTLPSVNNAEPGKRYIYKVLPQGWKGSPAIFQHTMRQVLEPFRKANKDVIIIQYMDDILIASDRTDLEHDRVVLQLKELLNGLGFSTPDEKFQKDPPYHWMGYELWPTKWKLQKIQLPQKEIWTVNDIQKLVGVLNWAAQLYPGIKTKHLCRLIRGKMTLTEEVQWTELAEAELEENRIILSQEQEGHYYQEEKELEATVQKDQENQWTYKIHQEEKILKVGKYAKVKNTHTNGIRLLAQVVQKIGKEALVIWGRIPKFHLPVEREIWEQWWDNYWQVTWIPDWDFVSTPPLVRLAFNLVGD

Take `NC(=O)c1c(N)sc2c1CCCCC2` [SMR000066289]: the half-inhibitory concentration (IC50) in assay [1] turned out to be 2 µM; in assay [2], 2.5 µM; in assay [3] it was 10.6 µM; in assay [4], 100 µM.
Regarding `Cc1sc(NC(=O)c2ccco2)c(C(N)=O)c1C` [vinylogous urea, NSC727448], the IC50 in assay [1] worked out at 3.2 µM; in assay [2] it was 5 µM; in assay [3], 29 µM; in assay [4], 73 µM.
